In US10640452B2, “Branched trialkyl quaternary ammonium compounds” (Eastman Chemical Company, priority 2018, dated 2020):

Experiments:
Candida albicans = experiment: Antimicrobial screening, microplate dilution assay (MIC) and agar spotting (MLC); assay type: cell-based; conditions: Candida albicans (yeast); for MIC < 10%: lowest concentration with growth less than 10% of control; for MIC < 10% / MIC < 50%: approx. 24 h, 32° C.; for MIC < 50%: lowest concentration with growth less than 50% of control; for MLC: minimum lethal concentration, absence of growth on agar
Procedure: (§1) The minimum inhibitory concentration (MIC) and the minimum lethal concentration (MLC) of the chemicals were determined using a microplate dilution assay. Quats were provided as aqueous solutions, while Triclosan and Chloroxylenol were provide as powders which were first dissolved at 5 weight percent in absolute ethanol. A two-fold serial dilution series of each test chemical was prepared in Trypticase Soy Broth at 20% of the standard concentration (TSB20) and in Sabouraud Dextrose Broth at 20% of the standard concentration (SDB20) in 96-well micro-titer plates. A total of 10 dilutions were prepared and four replicate tests were performed for each dilution. […] Control solutions containing only media were included for each plate. Suspensions of Staphylococcus aureus, Escherichia coli, and Candida albicans were prepared from one-day old agar plate cultures in Butterfields Phosphate Diluent to a concentration of approximately 10^7 to 10^8 cells per milliliter. Each test well was inoculated with the diluted culture suspensions at a concentration of 10^3 to 10^4 cells per well and then incubated at 32° C. with shaking at 150 rpm for approximately 24 hours, after which the optical density of each well was determined spectrophotometrically at 600 nm. Wells containing uninoculated media without test chemical were included in each plate as negative controls and, following inoculation, as positive controls.
(§2) Selected wells at or below the MIC were tested for MLC by spotting three microliters from each replicate well onto Trypticase Soy agar for S. aureus and E. coli, or Sabouraud Dextrose agar for C. albicans.

Escherichia coli = experiment: as above; assay type: cell-based; conditions: Escherichia coli (Gram neg bacteria); for MIC < 10%: lowest concentration with growth less than 10% of control; for MIC < 10% / MIC < 50%: approx. 24 h, 32° C.; for MIC < 50%: lowest concentration with growth less than 50% of control; for MLC: minimum lethal concentration, absence of growth on agar
Procedure: as §1, §2

Staphylococcus aureus = experiment: as above; assay type: cell-based; conditions: Staphylococcus aureus (Gram pos bacteria); for MIC < 10%: lowest concentration with growth less than 10% of control; for MIC < 10% / MIC < 50%: approx. 24 h, 32° C.; for MIC < 50%: lowest concentration with growth less than 50% of control; for MLC: minimum lethal concentration, absence of growth on agar
Procedure: as §1, §2

[1] = Ready Biodegradability - CO2 Evolution Test OECD 301B
Procedure: The biodegradability of the branched aldehyde intermediates of Example 2 (4-ethyl-2-methyloctanal) and Example 25 (2,4-diethyl-2-octenal) were determined by the Ready Biodegradability—CO2 Evolution Test—Degradation of test compound according to OECD Guidelines for Testing of Chemicals CO2 Evolution Test 301B.

| SMILES | Biodegradation (%) ([1]; day 0) | Biodegradation (%) ([1]; day 2) | Biodegradation (%) ([1]; day 6) | Biodegradation (%) ([1]; day 7) | Biodegradation (%) ([1]; day 9) | Biodegradation (%) ([1]; day 14) | Biodegradation (%) ([1]; day 19) | Biodegradation (%) ([1]; day 23) | Biodegradation (%) ([1]; day 28) | Biodegradation (%) ([1]; day 29 (first line)) | Biodegradation (%) ([1]; day 29 (second line)) | MIC < 10% (Candida albicans) [Weight percent] | MIC < 50% (Candida albicans) [Weight percent] | MLC (Candida albicans) [Weight percent] | MIC < 10% (Escherichia coli) [Weight percent] | MIC < 50% (Escherichia coli) [Weight percent] | MLC (Escherichia coli) [Weight percent] | MIC < 10% (Staphylococcus aureus) [Weight percent] | MIC < 50% (Staphylococcus aureus) [Weight percent] | MLC (Staphylococcus aureus) [Weight percent] |
| --- | --- | --- | --- | --- | --- | --- | --- | --- | --- | --- | --- | --- | --- | --- | --- | --- | --- | --- | --- | --- |
| CCCCCCCCCCCC[N+](C)(C)Cc1ccccc1.[Cl-] [BAC-12 linear, benzalkonium chloride, C12] |  |  |  |  |  |  |  |  |  |  |  | 0.0016 | 0.00078 | 0.0016 | 0.00078 | 0.00078 | 0.00078 | 0.0002 | 0.0002 | 0.0002 |
| Oc1cc(Cl)ccc1Oc1ccc(Cl)cc1Cl [Triclosan] |  |  |  |  |  |  |  |  |  |  |  | 0.0016 | 0.0016 | >0.0016 | 0.00010 | 0.00010 | 0.00010 | 0.00002 | 0.00002 | 0.00003 |
| CC(=O)[O-].[Na+] [sodium acetate] | 0 | 32 | 52 | 54 | 60 | 66 | 69 | 71 | 72 | 74 | 78 |  |  |  |  |  |  |  |  |  |

Further lines, with some results ahead:

| Biodegradation (%) ([1]; day 0) | Biodegradation (%) ([1]; day 2) | Biodegradation (%) ([1]; day 6) | Biodegradation (%) ([1]; day 7) | Biodegradation (%) ([1]; day 9) | Biodegradation (%) ([1]; day 14) | Biodegradation (%) ([1]; day 19) | Biodegradation (%) ([1]; day 23) | Biodegradation (%) ([1]; day 28) | Biodegradation (%) ([1]; day 29 (first line)) | Biodegradation (%) ([1]; day 29 (second line)) | SMILES | MIC < 10% (Candida albicans) [Weight percent] | MIC < 50% (Candida albicans) [Weight percent] | MLC (Candida albicans) [Weight percent] | MIC < 10% (Escherichia coli) [Weight percent] | MIC < 50% (Escherichia coli) [Weight percent] | MLC (Escherichia coli) [Weight percent] | MIC < 10% (Staphylococcus aureus) [Weight percent] | MIC < 50% (Staphylococcus aureus) [Weight percent] | MLC (Staphylococcus aureus) [Weight percent] |
| --- | --- | --- | --- | --- | --- | --- | --- | --- | --- | --- | --- | --- | --- | --- | --- | --- | --- | --- | --- | --- |
| 0 | 0 | 15 | 21 | 31 | 47 | 54 | 56 | 57 | 57 | 61 | CCCCC(CC)CC(C)C=O (stereo not drawn) [Example 2, 4-ethyl-2-methyloctanal] |  |  |  |  |  |  |  |  |  |
| 0 | 0 | 0 | 9 | 27 | 48 | 53 | 53 | 55 | 55 | 57 | CCCCC(CC)CC(C=O)CC (stereo not drawn) [Example 25, 2,4-diethyloctanal] |  |  |  |  |  |  |  |  |  |
